Tests used:
[1] = 9-month oral toxicity study in dogs; format: in vivo; conditions: dog
Protocol: The updated exposure margins considering the highest maximum exposures in rats and dogs are calculated as follows: • Maximum exposure in the rat (male) was in the 14-day IV study and at the 300 mg/kg dose, the AUClast is 1070 μg*hr/mL. • Maximum exposure in dogs occurred at the 300 mg/kg dose in the 9-month oral toxicity study and the AUClast is 1310*μg·hr/mL.

[2] = system: healthy volunteers aged≥65 years; experiment: Phase 1b Part B (MD) safety; format: in vivo, human
Protocol: The Safety Analysis Set is used for safety analysis. Subjects is analyzed based on the actual treatment received.
The double-blind, placebo-controlled clinical trial evaluated the safety and pharmacodynamics of BGE-105.

[3] = system: aged mice; conditions: aged mice (24-month-old) vs age-matched controls, cited from earlier work
[4] = system: Diet-Induced Obese (DIO) mice; experiment: Pilot study of BGE-105 in aged DIO mice treated with semaglutide (Example 1); format: in vivo
Description: Endpoints and measurements used to assess effects included: • Body Weight, Clinical Evaluation & Body Condition Score; • Group Food Intake, Water Intake; • Fed Glucose; • Body composition by Echo-MRI; • Baseline and endpoint grid hang tests; and • Endpoint tissue harvest.
25-month-old (aged) C57BL/6 female mice were used in this study. Diet for 25-month-old C57BL/6 mice included lean control D12450B (10 kcal % fat), or a diet induced-obesity (DIO) diet D12492 (60 kcal % fat) (Research Diets, Inc.). The study duration was 37 days. Treatment started on Day 0 and ended on Day 35-36.
Semaglutide was purchased from MCE (Cat No. HY-114118/CS-0069903)
Mice from all Groups (1-5) were measured with fed glucose, and body weight and body composition for randomization.
Body weight, group food intake, group water intake, body composition and grid hang tests were measured and monitored during the study.
On the day of necropsy, blood plasma and tissue samples were collected.

[5] = system: healthy adult subjects; experiment: Phase 1 Part A (SAD) insulin resistance (HOMA-IR); format: in vivo, human; conditions: SAD cohorts 1, 2, 3; Day 3 Predose and Day 4 visits; largest decrease in cohort 3
Protocol: In Part A, of 24 subjects enrolled (3 SAD cohorts, 8 subjects each), a total of at least 12 subjects are ≥65 years of age (≥4 subjects in each cohort). The remaining subjects are ≥18 years old.
Biomarkers including, but not limited to changes in: • Plasma glucose • Plasma insulin • Insulin resistance (HOMA-IR)
After a baseline period of 24 hours in the clinic, all subjects receive a LD, 1-hour infusion on Day 1. After a 48-hour wash-out period, in which PK and PK/PD data iscollected, subjects receive a 23-hour infusion (1-hour LD followed by a 22-hour maintenance dose). See FIG. 45 for the different dose levels in each SAD cohort. See e.g., Table 33 below. Part A is double-blinded. The cohorts of Part A is conducted sequentially starting with SAD cohort 1.
Blood samples (4 mL) for plasma insulin and glucose monitoring are collected in the morning, before breakfast and after fasting overnight at timepoints described previously.
Data is analyzed as change from baseline within each dose cohort and treatment group. Treatment comparisons are made as a linear contrast of all treated compared to all placebo and for each individual dose cohort versus all placebo based on time-matched samples acquired during the 24-hour period on Day −1. P-values are reported uncorrected for multiplicity.

[6] = system: aged mice; conditions: aged mice (18-month-old) first injected with a cardiotoxin; cited from earlier work

COc1cccc(OC)c1-n1c(NS(=O)(=O)[C@@H](C)[C@H](C)c2ncc(C)cn2)nnc1-c1cncc(C)c1 [BGE-105, (2S,3R)—N-(4-(2,6-dimethoxyphenyl)-5-(5-methyl-3-pyridinyl)-4H-1,2,4-triazol-3-yl)-3-(5-methyl-2-pyrimidinyl)-2-butanesulfonamide]
NOAEL [1]: maximum dose tested
Tolerability ([2]; Part B study): well tolerated
Serious adverse effects ([2]; volunteers≥65 years old, 10 days of bed rest): no serious adverse effects
Voluntary motor activity ([3]; p=0.00228): statistically significant increase in voluntary motor activity
Grip strength ([3]; p=0.04): statistically significant improvement in grip strength
Muscle function, grid hang test (latency before mice fell from the grid) ([4]; semaglutide 100 nmol/kg, BGE-105 1.1 mg/mL, combination compared to either agent alone): increased muscle function
Weight of perigonadal fat at study endpoint ([4]; semaglutide 100 nmol/kg, BGE-105 1.1 mg/mL, combination loss statistically significant): statistically insignificant loss in perigonadal fat
Quadriceps weight as a percentage of total body weight at study endpoint ([4]; semaglutide 100 nmol/kg, BGE-105 1.1 mg/mL, vs DIO control mice): increased quadricep weight as a percentage of total body weight, but the increases did not achieve statistical significance
neutrophil gelatinase-associated lipocalin (NGAL) level at study endpoint ([4]; vs DIO control mice): decreased plasma NGAL level
Percent change from baseline in HOMA-IR [5]: decrease in the percent change from baseline in HOMA-IR
mRNA transcripts indicative of muscle regeneration [6]: significantly higher levels of several mRNA transcripts which are indicative of muscle regeneration

— patent US20240366602A1, “COMBINATION THERAPY OF APELIN RECEPTOR AGONIST AND GLP-1 RECEPTOR AGONIST FOR TREATING A DISEASE OR CONDITION ASSOCIATED WITH WEIGHT GAIN” (BioAge Labs, Inc., priority 2023, published 2024)
